For the test, the target named is Beta-adrenergic receptor (Mus musculus, UniProt P34971+P18762+P25962). Put plainly: Effective concentration against 125I]iodocyanopindolol(ICYP) binding to beta adrenergic receptor was determined. It is filed as protein assay.

For `NCCCNCC(O)c1ccc(O)c(O)c1` (configuration not stated), the EC50 is 160 µM. Take `CC(CCCCNC(=O)OCc1ccccc1)NCC(O)c1ccc(O)c(O)c1` (configuration not stated): the EC50 came out at 0.049 µM.

A word on the EC50: it is the concentration that produces a half-maximal response. A high value points to weaker potency.

These data come from ChEMBL document CHEMBL1122997, “Conjugates of catecholamines. 5. Synthesis and beta-adrenergic activity of N-(aminoalkyl)norepinephrine derivatives” (J Med Chem, 1985).
